Key:
Chang cells = assay: GSK-3 cellular assay (C2): 14C-D-glucose incorporation into glycogen; format: cell-based; details: increase in D-glucose incorporation into glycogen, test concentration of 10^−6 M
Method: Test compounds were tested for their ability to increase the incorporation of ^14C-D-glucose into glycogen in living cells. To do this, Chang cells (360,000 cells/well) were cultured in 0.5 ml of MEM Rega 3 medium supplemented with 10% fetal calf serum, 1% L-glutamine and 2% sodium carbonate. After 3 days, cells were washed with 0.5 ml of phosphate-buffered saline and overlayed with 1 ml of serum- and glucose-free DMEM medium. Then, 2 μl of compound in DMSO and 50 μl substrate (3 mM glucose and 0.5 μCi ^14C-D-glucose were added and the cultures were incubated for 90 min. Cells were then extracted with 0.5 ml of 20% KOH for 60 min at 37° C. and the cell lysates were transferred to 10 ml tubes containing 300 μl of 1 mg/ml glycogen as […]. Following the addition of 2 ml ethanol, total glycogen was precipitated overnight at −20° C. and the precipitates were recovered by centrifugation. Precipitates were then resuspended in 1 ml of water and transferred to scintillation counter vials. and the amount of ^14C-D-glucose incorporation into glycogen was measured by scintillation counting. Scores for the compounds according to the invention, were obtained at a test concentration of 10^−6 M. Score 1=10-30% increase, Score 2=30-60% increase, Score 3=60-80% increase and Score 4=>80% increase in D-glucose incorporation.

Aurora-A (h) = target: T1, Aurora-A (h) (Homo sapiens, UniProt O14965); assay: Kinase profiling C3.1 Aurora-A human; format: biochemical; details: test concentration of 10^−6 M
T1 sequence (O14965 1-403): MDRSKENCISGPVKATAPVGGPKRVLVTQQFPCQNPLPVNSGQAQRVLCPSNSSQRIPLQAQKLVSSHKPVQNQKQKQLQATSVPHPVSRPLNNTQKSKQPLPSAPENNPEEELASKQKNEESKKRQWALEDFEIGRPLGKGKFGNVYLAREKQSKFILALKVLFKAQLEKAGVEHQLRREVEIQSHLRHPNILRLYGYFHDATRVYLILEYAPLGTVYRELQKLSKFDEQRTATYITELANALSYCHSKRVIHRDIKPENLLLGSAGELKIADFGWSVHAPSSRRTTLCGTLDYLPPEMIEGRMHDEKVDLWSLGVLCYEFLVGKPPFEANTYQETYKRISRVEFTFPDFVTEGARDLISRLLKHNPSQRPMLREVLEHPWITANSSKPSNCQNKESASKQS
Method: (§1) The in vitro inhibition of a panel of kinases was assessed using either the glass-fiber filter technology as described by Davies, S. P. et al., Biochem J. (2000), 351; p. 95-105. In the glass-fiber filter technology the activity of the kinase of interest is measured using an appropriate substrate that is incubated with the aforementioned kinase protein in the presence of (^33P) radiolabeled ATP. (^33P) Phosporylation of the substrate is subsequently measured as radioactivity bound on a glassfiber-filter.
(§2) All kinases are pre-diluted to a 10× working concentration prior to addition into the assay. The composition of the dilution buffer for each kinase is detailed below.
(§3) All substrates are dissolved and diluted to working stocks in de-ionised water, apart from histone H1 that is stored in 10× working stock in 20 mM MOPS pH 7.4.
(§4) In a final reaction volume of 25 μl, Aurora-A (h) (5-10 mU) is incubated with 8 mM MOPS pH 7.0, 0.2 mM EDTA, 200 μM LRRASLG (Kemptide), 10 mM MgAcetate and [γ-^33P-ATP] (specific activity approx. 500 cpm/pmol, concentration as required). The reaction is initiated by the addition of the MgATP mix. After incubation for 40 minutes at room temperature, the reaction is stopped by the addition of 5 μl of a 3% phosphoric acid solution. 10 μl of the reaction is then spotted onto a P30 filtermat and washed three times for 5 minutes in 50 mM phosphoric acid and once in methanol prior to drying and scintillation counting.

CDK5/p35 human = CDK5/p35 human (Homo sapiens, UniProt Q00535); assay: Kinase profiling C3.6 CDK5/p35 human; format: biochemical; details: CDK5/p35, test concentration of 10^−6 M
Procedure, shortened: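 Radiometric filter-binding assay: human CDK5/p35 (5-10 mU) with 0.1 mg/ml histone H1 substrate in 8 mM MOPS pH 7.0, 0.2 mM EDTA, 10 mM Mg acetate and [γ-33P]ATP. Incubated 40 min at room temperature, stopped with phosphoric acid. Substrate 33P incorporation counted on P30 filtermat by scintillation.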

cSRC (h) = cSRC (h) (Homo sapiens, UniProt P12931); assay: Kinase profiling C3.9 cSRC human; format: biochemical; details: test concentration of 10^−6 M
Method: as §1, §2, §3
In a final reaction volume of 25 μl, cSRC (h) (5-10 mU) is incubated with 8 mM MOPS pH 7.0, 0.2 mM EDTA, 250 μM KVEKIGEGTYGVVYK (Cdc2 peptide), 10 mM MgAcetate and [γ-^33P-ATP] (specific activity approx. 500 cpm/pmol, concentration as required). The reaction is initiated by the addition of the MgATP mix. After incubation for 40 minutes at room temperature, the reaction is stopped by the addition of 5 μl of a 3% phosphoric acid solution.
10 μl of the reaction is then spotted onto a P30 filtermat and washed three times for 5 minutes in 75 mM phosphoric acid and once in methanol prior to drying and scintillation counting.

Yes (h) = Yes (h) (Homo sapiens, UniProt P07947); assay: Kinase profiling C3.10 Yes human; format: biochemical; details: test concentration of 10^−6 M
Method: as §1, §2, §3
as §4, with “μl, Yes” for “μl, Aurora-A”, “EDTA, 0.1 mg/ml poly(Glu, Tyr) 4:1,” for “EDTA, 200 μM LRRASLG (Kemptide),”, “a Filtermat A” for “a P30 filtermat”, “in 75” for “in 50”

Sequence of cSRC (h) (P12931 whole entry): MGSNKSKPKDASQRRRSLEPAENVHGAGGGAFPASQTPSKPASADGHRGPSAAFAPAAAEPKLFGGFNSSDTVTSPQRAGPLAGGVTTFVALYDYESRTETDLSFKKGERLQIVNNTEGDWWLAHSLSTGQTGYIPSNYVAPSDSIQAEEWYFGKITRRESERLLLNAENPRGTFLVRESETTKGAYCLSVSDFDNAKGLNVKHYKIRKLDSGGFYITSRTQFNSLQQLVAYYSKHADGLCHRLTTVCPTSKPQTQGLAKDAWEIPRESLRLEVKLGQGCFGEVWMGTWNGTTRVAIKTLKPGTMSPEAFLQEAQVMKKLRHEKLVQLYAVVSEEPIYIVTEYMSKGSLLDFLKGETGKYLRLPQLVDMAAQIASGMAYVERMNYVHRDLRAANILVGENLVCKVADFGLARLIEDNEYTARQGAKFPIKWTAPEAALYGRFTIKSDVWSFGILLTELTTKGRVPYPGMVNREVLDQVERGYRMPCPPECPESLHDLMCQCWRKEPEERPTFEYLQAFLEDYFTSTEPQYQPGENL
Sequence of Yes (h) (P07947 whole entry): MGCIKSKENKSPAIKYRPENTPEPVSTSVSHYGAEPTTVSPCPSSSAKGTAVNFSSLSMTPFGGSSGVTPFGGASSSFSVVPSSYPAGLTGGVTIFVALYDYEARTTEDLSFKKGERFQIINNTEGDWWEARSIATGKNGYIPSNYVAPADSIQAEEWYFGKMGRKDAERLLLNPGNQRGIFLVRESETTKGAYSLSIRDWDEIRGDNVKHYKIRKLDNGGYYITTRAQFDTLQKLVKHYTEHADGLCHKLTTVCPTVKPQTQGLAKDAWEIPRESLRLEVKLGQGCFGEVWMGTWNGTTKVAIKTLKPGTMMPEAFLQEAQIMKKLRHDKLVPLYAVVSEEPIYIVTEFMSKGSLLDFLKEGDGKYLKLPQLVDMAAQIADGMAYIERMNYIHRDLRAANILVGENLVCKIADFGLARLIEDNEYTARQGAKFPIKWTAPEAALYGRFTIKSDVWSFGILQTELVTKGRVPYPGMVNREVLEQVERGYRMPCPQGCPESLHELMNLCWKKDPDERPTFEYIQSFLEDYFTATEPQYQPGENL
Sequence of CDK5/p35 human (Q00535 whole entry): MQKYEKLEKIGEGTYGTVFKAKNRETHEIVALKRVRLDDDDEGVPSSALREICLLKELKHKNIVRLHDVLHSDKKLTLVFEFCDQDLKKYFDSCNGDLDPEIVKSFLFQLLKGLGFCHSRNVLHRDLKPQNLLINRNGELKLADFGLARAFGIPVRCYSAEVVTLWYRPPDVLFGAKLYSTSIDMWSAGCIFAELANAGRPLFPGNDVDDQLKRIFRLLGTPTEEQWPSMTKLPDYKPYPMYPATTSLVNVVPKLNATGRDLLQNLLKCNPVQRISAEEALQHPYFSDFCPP
Sequence of CDK5/p35 human (Q15078 whole entry partner): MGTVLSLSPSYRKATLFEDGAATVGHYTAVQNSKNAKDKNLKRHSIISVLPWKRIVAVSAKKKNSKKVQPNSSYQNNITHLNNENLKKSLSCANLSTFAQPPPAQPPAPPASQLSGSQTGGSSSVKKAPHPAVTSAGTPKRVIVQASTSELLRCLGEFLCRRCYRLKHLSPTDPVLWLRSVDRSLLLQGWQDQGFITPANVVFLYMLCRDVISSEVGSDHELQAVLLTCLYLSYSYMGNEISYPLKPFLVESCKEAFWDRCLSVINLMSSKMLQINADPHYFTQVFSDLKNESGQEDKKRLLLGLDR

C3.1 score (Aurora-A (h))	C3.6 score (CDK5/p35 human)	C3.9 score (cSRC (h))	C3.10 score (Yes (h))	Compound	C2 Score (Chang cells)
1 (Score 1 = 10-30% inhibition)	3 (Score 3 = 60-80% inhibition)	1 (Score 1 = 10-30% inhibition)	1 (Score 1 = 10-30% inhibition)	O=C1CN2CCN(CC2)Cc2cccc(c2)Nc2ncnc(n2)-c2ccnc(c2)CCCN1 [Compound 36]	4 (Score 4=>80% increase in D-glucose incorporation)
2 (Score 2 = 30-60% inhibition)	4 (Score 4 = >80% inhibition)	4 (Score 4 = >80% inhibition)	4 (Score 4 = >80% inhibition)	O=C1NCCCc2cc(ccc2F)-c2ncnc(n2)Nc2cc(Cl)cc(c2)CN[C@H]1CO [Compound 71]	4 (Score 4=>80% increase in D-glucose incorporation)
1 (Score 1 = 10-30% inhibition)	3 (Score 3 = 60-80% inhibition)	1 (Score 1 = 10-30% inhibition)	1 (Score 1 = 10-30% inhibition)	O=C1NCCCc2cncc(c2)-c2ncnc(n2)Nc2cccc(c2)CN[C@H]1CO [Compound 81]	4 (Score 4=>80% increase in D-glucose incorporation)
